Experimental data reported in patent publication EP0584797A2, “Novel cephalosporin compounds and processes for the preparation thereof” (LUCKY LTD., priority 1992, dated 1994).
In brackets after ≈: the same amount, converted by molar mass.

Tests used:
Assay in all cases: minimal inhibitory concentration, two-fold agar dilution
Format in all cases: cell-based
[1] = system: Klebsiella pneumoniae ATCC 10031; details: ATCC10031, Muller-Hinton agar, 37°C, 20 hours, read-out: MIC values against the standard strains
Protocol: (§1) These MIC values were taken by employing a two-fold dilution method: that is, two-fold serial dilutions of each of the test compounds were made and dispersed in a Muller-Hinton agar medium; 2µl of the standard test strain which had the 10⁷ CFU(Colony Forming Unit) per ml was inoculated on the medium; and these were incubated at 37°C for 20 hours.

[2] = system: Bacillus megaterium ATCC 9885; details: Priestia megaterium, ATCC9885; Muller-Hinton agar; 37°C; 20 hours; read-out: MIC values against the standard strains
Protocol: as §1

[3] = system: Providencia rettgeri ATCC 9250; details: ATCC9250, Muller-Hinton agar, 37°C, 20 hours, read-out: MIC values against the standard strains
Protocol: as §1

[4] = system: Serratia marcescens ATCC 27117; details: ATCC27117, Muller-Hinton agar, 37°C, 20 hours, read-out: MIC values against the standard strains
Protocol: as §1

[5] = system: Streptococcus faecalis ATCC 29212; details: Enterococcus faecalis, ATCC29212; Muller-Hinton agar; 37°C; 20 hours; read-out: MIC values against the standard strains
Protocol: as §1

[6] = system: Micrococcus luteus ATCC 9341; details: ATCC9341, Muller-Hinton agar, 37°C, 20 hours, read-out: MIC values against the standard strains
Protocol: as §1

[7] = system: Staphylococcus aureus ATCC 6538p; details: ATCC6538P, Muller-Hinton agar, 37°C, 20 hours, read-out: MIC values against the standard strains
Protocol: as §1

[8] = system: Salmonella typhimurium ATCC 14028; details: Salmonella enterica; Muller-Hinton agar; 37°C; 20 hours; read-out: MIC values against the standard strains
Protocol: as §1

[9] = system: Acinetobacter calcoaceticus ATCC 15473; details: ATCC15473, Muller-Hinton agar, 37°C, 20 hours, read-out: MIC values against the standard strains
Protocol: as §1

[10] = system: Shigella sonnei ATCC 11060; details: ATCC11060, Muller-Hinton agar, 37°C, 20 hours, read-out: MIC values against the standard strains
Protocol: as §1

[11] = system: Escherichia coli ATCC 10536; details: ATCC10536, Muller-Hinton agar, 37°C, 20 hours, read-out: MIC values against the standard strains
Protocol: as §1

[12] = system: Citrobacter freundii ATCC 8090; details: ATCC8090, Muller-Hinton agar, 37°C, 20 hours, read-out: MIC values against the standard strains
Protocol: as §1

[13] = system: Shigella flexneri ATCC 11836; details: ATCC11836, Muller-Hinton agar, 37°C, 20 hours, read-out: MIC values against the standard strains
Protocol: as §1

[14] = system: Escherichia coli ATCC 25922; details: ATCC25922, Muller-Hinton agar, 37°C, 20 hours, read-out: MIC values against the standard strains
Protocol: as §1

[15] = system: Pseudomonas aeruginosa ATCC 27853; details: ATCC27853, Muller-Hinton agar, 37°C, 20 hours, read-out: MIC values against the standard strains
Protocol: as §1

[16] = system: Pseudomonas aeruginosa ATCC 25619; details: ATCC25619, Muller-Hinton agar, 37°C, 20 hours, read-out: MIC values against the standard strains
Protocol: as §1

[17] = system: Enterobacter cloacae ATCC 27508; details: ATCC27508, Muller-Hinton agar, 37°C, 20 hours, read-out: MIC values against the standard strains
Protocol: as §1

[18] = system: Bacillus cereus ATCC 11778; details: ATCC11778, Muller-Hinton agar, 37°C, 20 hours, read-out: MIC values against the standard strains
Protocol: as §1

[19] = system: Pseudomonas aeruginosa ATCC 10145; details: ATCC10145, Muller-Hinton agar, 37°C, 20 hours, read-out: MIC values against the standard strains
Protocol: as §1

[20] = system: Enterobacter aerogenes ATCC 29751; details: Klebsiella aerogenes, ATCC29751; Muller-Hinton agar; 37°C; 20 hours; read-out: MIC values against the standard strains
Protocol: as §1

[21] = system: Morganella morganii ATCC 8076h; details: ATCC8076H, Muller-Hinton agar, 37°C, 20 hours, read-out: MIC values against the standard strains
Protocol: as §1

[22] = system: Proteus vulgaris ATCC 6059; details: ATCC6059, Muller-Hinton agar, 37°C, 20 hours, read-out: MIC values against the standard strains
Protocol: as §1

[23] = system: Staphylococcus aureus ATCC 10537; details: ATCC10537, Muller-Hinton agar, 37°C, 20 hours, read-out: MIC values against the standard strains
Protocol: as §1

[24] = system: Staphylococcus epidermidis ATCC 12228; details: ATCC12228, Muller-Hinton agar, 37°C, 20 hours, read-out: MIC values against the standard strains
Protocol: as §1

[25] = system: Proteus mirabilis ATCC 25933; details: ATCC25933, Muller-Hinton agar, 37°C, 20 hours, read-out: MIC values against the standard strains
Protocol: as §1

CNc1cc(N)nc(SCC2=C(C(=O)[O-])N3C(=O)[C@@H](NC(=O)/C(=N\OC(C)(C)C(=O)O)c4csc(N)n4)[C@H]3SC2)[n+]1C [Example 35, 7-[(Z)-2-(2-aminothiazol-4-yl)-2-(carboxyprop-2-oxyimino)acetamido]-3-(4-amino-6-methylamino-1-methylpyrimidinium-2-yl)thiomethyl-3-cephem-4-carboxylate] was tested, and the MIC [1] was 0.063 µg/mL (≈ 0.0988 µM), the MIC [2] was 0.5 µg/mL (≈ 0.784 µM) and the MIC [3] was ≤ 0.008 µg/mL. The MIC [4] was 0.13 µg/mL (≈ 0.204 µM), the MIC [5] was > 128 µg/mL and the MIC [6] was 0.25 µg/mL (≈ 0.392 µM). The MIC [7] was 4 µg/mL (≈ 6.27 µM), the MIC [8] was 0.13 µg/mL (≈ 0.204 µM) and the MIC [9] was 8 µg/mL (≈ 12.5 µM). For the same compound, the MIC [10] was 0.063 µg/mL (≈ 0.0988 µM), the MIC [11] was 0.063 µg/mL (≈ 0.0988 µM) and the MIC [12] was 0.063 µg/mL (≈ 0.0988 µM). It also gave an MIC [13] of 0.031 µg/mL (≈ 0.0486 µM), an MIC [14] of 0.063 µg/mL (≈ 0.0988 µM) and an MIC [15] of 2 µg/mL (≈ 3.14 µM). The MIC [16] was 2 µg/mL (≈ 3.14 µM), the MIC [17] was ≤ 0.008 µg/mL and the MIC [18] was 128 µg/mL (≈ 201 µM). The MIC [19] was 2 µg/mL (≈ 3.14 µM), the MIC [20] was 1 µg/mL (≈ 1.57 µM) and the MIC [21] was ≤ 0.008 µg/mL. The MIC [22] was 0.063 µg/mL (≈ 0.0988 µM), the MIC [23] was 2 µg/mL (≈ 3.14 µM) and the MIC [24] was 2 µg/mL (≈ 3.14 µM). The MIC [25] was 0.031 µg/mL (≈ 0.0486 µM).
With C[n+]1c(-c2ccccc2)cc(N)nc1SCC1=C(C(=O)[O-])N2C(=O)[C@@H](NC(=O)/C(=N\OC(C)(C)C(=O)O)c3csc(N)n3)[C@H]2SC1 [Example 20, 7-[(Z)-2-(2-aminothiazol-4-yl)-2-(carboxyprop-2-oxyimino)acetamido]-3-(4-amino-6-phenyl-1-methylpyrimidinium-2-yl)thiomethyl-3-cephem-4-carboxylate] the MIC [1] was 0.13 µg/mL (≈ 0.19 µM), the MIC [2] was 0.13 µg/mL (≈ 0.19 µM) and the MIC [3] was ≤ 0.008 µg/mL. The MIC [4] was 2 µg/mL (≈ 2.92 µM), the MIC [5] was > 128 µg/mL and the MIC [6] was 0.25 µg/mL (≈ 0.365 µM). It also gave an MIC [7] of 4 µg/mL (≈ 5.84 µM), an MIC [8] of 1 µg/mL (≈ 1.46 µM) and an MIC [9] of 64 µg/mL (≈ 93.5 µM). The MIC [10] was 0.25 µg/mL (≈ 0.365 µM), the MIC [11] was 0.25 µg/mL (≈ 0.365 µM) and the MIC [12] was 0.5 µg/mL (≈ 0.73 µM). It also gave an MIC [13] of 0.13 µg/mL (≈ 0.19 µM), an MIC [14] of 0.5 µg/mL (≈ 0.73 µM) and an MIC [15] of 4 µg/mL (≈ 5.84 µM). The MIC [16] was 2 µg/mL (≈ 2.92 µM), the MIC [17] was 0.13 µg/mL (≈ 0.19 µM) and the MIC [18] was 64 µg/mL (≈ 93.5 µM). The MIC [19] was 16 µg/mL (≈ 23.4 µM), the MIC [20] was 4 µg/mL (≈ 5.84 µM) and the MIC [21] was ≤ 0.008 µg/mL. For the same compound, the MIC [22] was 0.5 µg/mL (≈ 0.73 µM), the MIC [23] was 2 µg/mL (≈ 2.92 µM) and the MIC [24] was 1 µg/mL (≈ 1.46 µM). For the same compound, the MIC [25] was 0.25 µg/mL (≈ 0.365 µM).
For CN(C)c1cc(N)nc(SCC2=C(C(=O)[O-])N3C(=O)[C@@H](NC(=O)/C(=N\OC(C)(C)C(=O)O)c4csc(N)n4)[C@H]3SC2)[n+]1C [Example 50, 7-[(Z)-2-(2-aminothiazol-4-yl)-2-(carboxyprop-2-oxyimino)acetamido]-3-{4-amino-1-methyl-6-(N,N-dimethyl)aminopyrimidinium-2-yl}thiomethyl-3-cephem-4-carboxylate], the MIC [1] was 0.063 µg/mL (≈ 0.0967 µM), the MIC [2] was 0.25 µg/mL (≈ 0.384 µM) and the MIC [3] was ≤ 0.008 µg/mL. The MIC [4] was 0.13 µg/mL (≈ 0.199 µM), the MIC [5] was > 128 µg/mL and the MIC [6] was 0.25 µg/mL (≈ 0.384 µM). It also gave an MIC [7] of 8 µg/mL (≈ 12.3 µM), an MIC [8] of 0.13 µg/mL (≈ 0.199 µM) and an MIC [9] of 4 µg/mL (≈ 6.14 µM). It also gave an MIC [10] of 0.063 µg/mL (≈ 0.0967 µM), an MIC [11] of 0.063 µg/mL (≈ 0.0967 µM) and an MIC [12] of 0.063 µg/mL (≈ 0.0967 µM). The MIC [13] was 0.031 µg/mL (≈ 0.0476 µM), the MIC [14] was 0.063 µg/mL (≈ 0.0967 µM) and the MIC [15] was 1 µg/mL (≈ 1.53 µM). For the same compound, the MIC [16] was 1 µg/mL (≈ 1.53 µM), the MIC [17] was ≤ 0.008 µg/mL and the MIC [18] was 128 µg/mL (≈ 196 µM). The MIC [19] was 2 µg/mL (≈ 3.07 µM), the MIC [20] was 0.5 µg/mL (≈ 0.767 µM) and the MIC [21] was ≤ 0.008 µg/mL. The MIC [22] was 0.031 µg/mL (≈ 0.0476 µM), the MIC [23] was 4 µg/mL (≈ 6.14 µM) and the MIC [24] was 2 µg/mL (≈ 3.07 µM). The MIC [25] was 0.031 µg/mL (≈ 0.0476 µM).
